Test results taken from patent publication US20140349955A1, “USE OF FLUORINE-CONTAINING WATER SOLUBLE PLATINUM COMPLEX IN PREPARING DRUGS FOR PREVENTION AND TREATMENT OF CANCERS” (GUDUI BIOPHARMA TECHNOLOGY INC., priority 2011, published 2014).

Assays:
Type in all cases: cell-based, human
Conditions in all cases: 96 h
A549 = assay: Synergistic cytotoxicity test (MTS), A549
Protocol: (§1) Containing 10% bovine fetal serum, 1 mM of sodium pyruvate, 2 mM of L-glutamine, 50 U/mL of penicillin, 50 μg/ mL of streptomycin.
(§2) Human tumor cells: du145-human prostate cancer; MCF-7-human breast cancer; SK0V3-human ovarian carcinoma, HT-29-human colon cancer; A549-human non-small cell lung cancer (adenocarcinoma), H460-human non-small cell lung cancer (large cell carcinoma), and animal tumor cells: L1210-mice leukemia cells used in the following activity test experiments were all purchased from Shanghai An Yan Commercial Trade Co., Ltd.
(§3) MTS test method was used in cytotoxicity assay. The tumor cells of logarithmic phase were collected, and then the concentration of cell suspension was adjusted, 100 μL of the cell suspension was added to each well, the cells were placed at 1000-10000 cells/well (edge well filled with sterile PBS). Cells were incubated at 37° C. with 5% CO2 to make cell monolayer overspread the bottom of each well (96-well flat-bottomed microplate). 100 μL of certain concentration solution of a mixture of the fluorine-containing water-soluble platinum complex with other antitumor agents was added to each well. Each condition was measured in five replicates. The microplate was incubated at 37° C. with 5% CO2 for 96 h and checked with inverted microscope. MTS working reagent: To 2 mL of MTS (2 mg/mL, prepared by DPBS) was added 100 μL of PMS (1 mg/mL, prepared by DPBS). The cell culture medium was discarded after centrifugation, the cell culture plate was carefully washed 2-3 times with PBS. Before detecting the absorbance value (OD), to each sample containing well was added 100 μL of cell culture medium, then 20 μL of MTS working reagent was added. After incubation at 37° C. with 5% CO2 for 2 h, the OD (optical density) value was detected at 490 nm.
(§4) Each of above experiment was repeated five times, and the cell viability was calculated according to the mean OD values.
(§5) Cell Viability (%)=(treated group OD value/control group OD value)×100
(§6) Control group: the conditions are the same as the above without adding the tested drug mixture (100 μL of culture medium was added in stead), and finally the absorbance was measured at 490 nm to obtain the OD value of the tumor cells.
(§7) Drug Group-1: only the fluorine-containing water-soluble platinum complex was added under the above conditions to obtain cell viability of tumor cells.
(§8) Drug Group-2: only the other chemotherapeutic drug (active ingredient) was added under the above conditions to obtain cell viability of tumor cells.
(§9) Drug Combination Group: the fluorine-containing water-soluble platinum complex and other chemotherapeutic drugs were added simultaneously under the above conditions to obtain cell viability of tumor cell. (2) Evaluation Method:
(§10) When the fluorine-containing water-soluble platinum complexes used in combination with other chemotherapy drugs, the inhibition effect on cancer cell proliferation is enhanced or synergistic, and the effect was calculated using the following formula:
(§11) Combination Effect (%)={[(A1-X)+(A2-X)]/(A1-A2)|}×100
(§12) wherein, A1 is the cell viability of drug group-1, A2 is the cell viability of drug group-2, X is the cell viability of drug combination group, (A1-A2)| is the absolute value of the cell viability difference between the two groups.
(§13) Calculated according to the above formula, when the results of [Combination Effect (%)]>+100%, that means the effect of inhibition on cell proliferation is enhanced or synergistic (3) Experimental Result: […]

SK0V3 = assay: Synergistic cytotoxicity test (MTS), SKOV3
Protocol: as §1, §2, §3, §4, §5, §6, §7, §8, §9, §10, §11, §12, §13

MCF7 = assay: Synergistic cytotoxicity test (MTS), MCF7
Protocol: as §1, §2, §3, §4, §5, §6, §7, §8, §9, §10, §11, §12, §13

HT29 = assay: Synergistic cytotoxicity test (MTS), HT29
Protocol: as §1, §2, §3, §4, §5, §6, §7, §8, §9, §10, §11, §12, §13

DU145 = assay: Synergistic cytotoxicity test (MTS), DU145
Protocol: as §1, §2, §3, §4, §5, §6, §7, §8, §9, §10, §11, §12, §13

H460 = assay: Synergistic cytotoxicity test (MTS), H460
Protocol: as §1, §2, §3, §4, §5, §6, §7, §8, §9, §10, §11, §12, §13

[1] = other chemotherapy drug (at its listed dosage) combined with Complex 2 (dosage: 1 μM)
[2] = other chemotherapy drug (at its listed dosage) combined with Complex 3 (dosage: 1 μM)
[3] = other chemotherapy drug (at its listed dosage) combined with Complex 2 (dosage: 1 μM), SLOV3
[4] = other chemotherapy drug (at its listed dosage) combined with Complex 3 (dosage: 1 μM), SlOV3
[5] = other chemotherapy drug (at its listed dosage) combined with Complex 5 (dosage: 1 μM), SLOV3
[6] = other chemotherapy drug (at its listed dosage) combined with Complex 6 (dosage: 1 μM), SLOV3
[7] = other chemotherapy drug (at its listed dosage) combined with Complex 5 (dosage: 1 μM)
[8] = other chemotherapy drug (at its listed dosage) combined with Complex 6 (dosage: 1 μM)

Compound | the effect of drug combination (Combination Effect) (A549; [1]) | the effect of drug combination (Combination Effect) (A549; [2]) | the effect of drug combination (Combination Effect) (SK0V3; [3]) | the effect of drug combination (Combination Effect) (SK0V3; [4]) | the effect of drug combination (Combination Effect) (SK0V3; [5]) | the effect of drug combination (Combination Effect) (SK0V3; [6]) | the effect of drug combination (Combination Effect) (MCF7; [1]) | the effect of drug combination (Combination Effect) (MCF7; [2]) | the effect of drug combination (Combination Effect) (MCF7; [7]) | the effect of drug combination (Combination Effect) (MCF7; [8]) | the effect of drug combination (Combination Effect) (HT29; [1]) | the effect of drug combination (Combination Effect) (HT29; [2]) | the effect of drug combination (Combination Effect) (HT29; [7]) | the effect of drug combination (Combination Effect) (HT29; [8]) | the effect of drug combination (Combination Effect) (DU145; [1]) | the effect of drug combination (Combination Effect) (DU145; [2]) | the effect of drug combination (Combination Effect) (DU145; [7]) | the effect of drug combination (Combination Effect) (DU145; [8]) | the effect of drug combination (Combination Effect) (H460; [7]) | the effect of drug combination (Combination Effect) (H460; [8])
CCc1c2c(nc3ccc(OC(=O)N4CCC(N5CCCCC5)CC4)cc13)-c1cc3c(c(=O)n1C2)COC(=O)[C@]3(O)CC [Irinotecan] | ⊚ (⊚ represents the effect of drug combination > 300%) | ⊚ (⊚ represents the effect of drug combination > 300%) | ⊚ (⊚ represents the effect of drug combination > 300%) | ⊚ (⊚ represents the effect of drug combination > 300%) | ⊚ (⊚ represents the effect of drug combination > 300%) | ⊚ (⊚ represents the effect of drug combination > 300%) | ○ (○ represents: 100% < the effect of drug combination < 300%) | ○ (○ represents: 100% < the effect of drug combination < 300%) | ○ (○ represents: 100% < the effect of drug combination < 300%) | ○ (○ represents: 100% < the effect of drug combination < 300%) | ⊚ (⊚ represents the effect of drug combination > 300%) | ⊚ (⊚ represents the effect of drug combination > 300%) | ⊚ (⊚ represents the effect of drug combination > 300%) | ⊚ (⊚ represents the effect of drug combination > 300%) | ○ (○ represents: 100% < the effect of drug combination < 300%) | ○ (○ represents: 100% < the effect of drug combination < 300%) | ○ (○ represents: 100% < the effect of drug combination < 300%) | ○ (○ represents: 100% < the effect of drug combination < 300%) | ⊚ (⊚ represents the effect of drug combination > 300%) | ⊚ (⊚ represents the effect of drug combination > 300%)
CC(=O)O[C@H]1C(=O)[C@@]2(C)[C@H]([C@H](OC(=O)c3ccccc3)[C@]3(O)C[C@H](OC(=O)[C@H](O)[C@@H](NC(=O)c4ccccc4)c4ccccc4)C(C)=C1C3(C)C)[C@]1(OC(C)=O)CO[C@@H]1C[C@@H]2O [Paclitaxel] | ⊚ (⊚ represents the effect of drug combination > 300%) | ⊚ (⊚ represents the effect of drug combination > 300%) | ⊚ (⊚ represents the effect of drug combination > 300%) | ⊚ (⊚ represents the effect of drug combination > 300%) | ⊚ (⊚ represents the effect of drug combination > 300%) | ⊚ (⊚ represents the effect of drug combination > 300%) | ⊚ (⊚ represents the effect of drug combination > 300%) | ⊚ (⊚ represents the effect of drug combination > 300%) | ⊚ (⊚ represents the effect of drug combination > 300%) | ⊚ (⊚ represents the effect of drug combination > 300%) | ⊚ (⊚ represents the effect of drug combination > 300%) | ⊚ (⊚ represents the effect of drug combination > 300%) | ⊚ (⊚ represents the effect of drug combination > 300%) | ○ (○ represents: 100% < the effect of drug combination < 300%) | ○ (○ represents: 100% < the effect of drug combination < 300%) | ⊚ (⊚ represents the effect of drug combination > 300%) | ⊚ (⊚ represents the effect of drug combination > 300%) | ⊚ (⊚ represents the effect of drug combination > 300%) | ⊚ (⊚ represents the effect of drug combination > 300%) | ⊚ (⊚ represents the effect of drug combination > 300%)
C#Cc1cccc(Nc2ncnc3cc(OCCOC)c(OCCOC)cc23)c1 [Tarceva] | ⊚ (⊚ represents the effect of drug combination > 300%) | ⊚ (⊚ represents the effect of drug combination > 300%) | ○ (○ represents: 100% < the effect of drug combination < 300%) | ○ (○ represents: 100% < the effect of drug combination < 300%) | ○ (○ represents: 100% < the effect of drug combination < 300%) | ○ (○ represents: 100% < the effect of drug combination < 300%) | ○ (○ represents: 100% < the effect of drug combination < 300%) | ○ (○ represents: 100% < the effect of drug combination < 300%) | ○ (○ represents: 100% < the effect of drug combination < 300%) | ○ (○ represents: 100% < the effect of drug combination < 300%) | ⊚ (⊚ represents the effect of drug combination > 300%) | ⊚ (⊚ represents the effect of drug combination > 300%) | ⊚ (⊚ represents the effect of drug combination > 300%) | ⊚ (⊚ represents the effect of drug combination > 300%) | ○ (○ represents: 100% < the effect of drug combination < 300%) | ○ (○ represents: 100% < the effect of drug combination < 300%) | ○ (○ represents: 100% < the effect of drug combination < 300%) | ○ (○ represents: 100% < the effect of drug combination < 300%) | ⊚ (⊚ represents the effect of drug combination > 300%) | ⊚ (⊚ represents the effect of drug combination > 300%)
